# Measured values published in BindingDB's records for doi:10.1016/j.bmcl.2023.129277 (n/a, 2023).
# Assays:
# [1] = Inhibition of PKD1 (unknown origin)
# [2] = Inhibition of PKD1 (unknown origin) assessed as inhibition constant
structure (smiles),measurement,setting,value
"CN1C(=O)[C@](O)(C#Cc2cccc(-n3nc(C(N)=O)c4cccnc43)c2)[C@H]2C[C@H]21 [1-(3-(((1R,4R,5S)-4-hydroxy-2-methyl-3-oxo-2-azabicyclo[3.1.0]hexan-4-yl)ethynyl)phenyl)-1H-pyrazolo[3,4-b]pyridine-3-carboxamide]",IC50,[1],210 nM
same,Ki,[2],64 nM
